Experimental data: paper doi:10.1101/2025.09.30.679521v1, “Crystallographic characterisation and development of bi-substrate inhibitors of coronavirus nsp14 methyltransferase” (biorxiv, 2025)
Like-named read-outs stand apart in the source and are kept apart here.

What was measured:
[1] = physchem
[2] = biological target: T1, human RNMT (Homo sapiens, UniProt O43148); experiment: RNMT methyltransferase assay (Gray et al.); format: biochemical
Text: RNMT methyltransferase assay (Gray et al.) on human RNMT

[3] = biological target: T2, SARS-CoV-2 nsp14 (Severe acute respiratory syndrome coronavirus 2, UniProt P0DTD1); experiment: RapidFire MS methyltransferase assay; format: biochemical
T2 construct: gene rep
Text: RapidFire MS methyltransferase assay on SARS-CoV-2 nsp14

[4] = biological target: T3, HCoV-229E nsp14 (Human coronavirus 229E, UniProt P0C6X1); experiment: RapidFire MS methyltransferase assay; format: biochemical
T3 construct: gene rep
Text: RapidFire MS methyltransferase assay on HCoV-229E nsp14

[5] = biological target: HCoV-NL63 nsp14 (Human coronavirus NL63, UniProt P0C6X5); experiment: RapidFire MS methyltransferase assay; format: biochemical
Text: RapidFire MS methyltransferase assay on HCoV-NL63 nsp14

[6] = physchem; remark: listed apart in the source
[7] = biological target: T1, human RNMT; experiment: biochemical; set-up: human RNMT methyltransferase inhibition
[8] = physchem; remark: listed apart in the source
[9] = in vitro; set-up: mouse liver microsomal stability; details: liver microsomes; Mouse liver microsomes; read-out: Mouse liver Mic T1/2 / min
Text: We initiated our structure-activity relationship (SAR) studies by investigating various replacements for the benzothiazole group, compounds 2-17, Table 1. […] Relatively flat SAR is observed across this subset of compounds, indeed a 6,5 or 6,6 aromatic system with the appropriate connectivity as compound 1 display relatively similar potencies. […] In general, the mouse microsomal clearance was rather low for this set of molecules, with no significant instabilities introduced, with perhaps the exception of compound 4. With no significant advantages in either potency or mouse microsomal clearance (Table S2) identified for this subset, the benzothiazole was taken forward into subsequent SAR studies. Table 2. Enzymatic inhibition against SARS-CoV-2 nsp14, human RNMT, CHI-logD and mouse microsomal stability.

T1 sequence (O43148 whole entry): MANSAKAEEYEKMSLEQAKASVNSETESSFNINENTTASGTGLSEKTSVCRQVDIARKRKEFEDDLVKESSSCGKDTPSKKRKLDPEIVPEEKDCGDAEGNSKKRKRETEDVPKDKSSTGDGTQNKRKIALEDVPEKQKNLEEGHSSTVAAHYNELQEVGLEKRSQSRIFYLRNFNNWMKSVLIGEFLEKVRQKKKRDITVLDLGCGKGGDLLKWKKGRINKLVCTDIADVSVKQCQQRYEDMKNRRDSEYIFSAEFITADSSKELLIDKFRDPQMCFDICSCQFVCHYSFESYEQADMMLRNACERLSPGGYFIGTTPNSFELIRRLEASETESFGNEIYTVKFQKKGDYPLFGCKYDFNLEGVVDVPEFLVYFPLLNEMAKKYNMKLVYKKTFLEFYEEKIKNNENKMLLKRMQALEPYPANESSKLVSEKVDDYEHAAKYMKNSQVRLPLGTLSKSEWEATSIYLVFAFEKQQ
T3 sequence (P0C6X1 5593-6110): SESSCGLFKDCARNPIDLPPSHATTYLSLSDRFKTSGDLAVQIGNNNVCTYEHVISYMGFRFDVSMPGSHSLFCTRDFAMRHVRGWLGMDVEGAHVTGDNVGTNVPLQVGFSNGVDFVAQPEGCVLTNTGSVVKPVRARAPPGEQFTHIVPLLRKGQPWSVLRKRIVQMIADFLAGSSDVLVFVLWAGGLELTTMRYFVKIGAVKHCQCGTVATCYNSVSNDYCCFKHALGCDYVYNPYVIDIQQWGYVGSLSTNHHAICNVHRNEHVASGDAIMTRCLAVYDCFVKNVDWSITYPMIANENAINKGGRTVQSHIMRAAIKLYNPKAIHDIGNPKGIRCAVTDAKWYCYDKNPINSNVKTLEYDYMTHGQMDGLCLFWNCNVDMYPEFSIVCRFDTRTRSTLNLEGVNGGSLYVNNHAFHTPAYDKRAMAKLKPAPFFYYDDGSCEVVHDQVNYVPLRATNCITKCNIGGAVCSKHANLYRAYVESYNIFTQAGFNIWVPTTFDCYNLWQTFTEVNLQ
Sequence of HCoV-NL63 nsp14 (P0C6X5 5568-6085): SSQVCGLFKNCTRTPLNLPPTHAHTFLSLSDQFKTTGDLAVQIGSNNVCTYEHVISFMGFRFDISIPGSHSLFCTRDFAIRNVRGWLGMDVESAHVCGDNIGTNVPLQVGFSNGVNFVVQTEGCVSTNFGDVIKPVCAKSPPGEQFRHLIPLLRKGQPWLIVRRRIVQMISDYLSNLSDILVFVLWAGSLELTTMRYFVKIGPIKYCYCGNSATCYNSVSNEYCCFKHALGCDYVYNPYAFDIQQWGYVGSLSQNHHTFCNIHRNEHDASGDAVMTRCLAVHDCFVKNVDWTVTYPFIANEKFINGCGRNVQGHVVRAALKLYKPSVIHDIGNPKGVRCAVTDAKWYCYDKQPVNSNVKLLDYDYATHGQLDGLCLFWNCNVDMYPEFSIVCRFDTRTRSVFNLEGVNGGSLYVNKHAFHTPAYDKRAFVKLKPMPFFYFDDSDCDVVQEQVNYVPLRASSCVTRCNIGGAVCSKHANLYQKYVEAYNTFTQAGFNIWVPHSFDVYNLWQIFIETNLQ

Work on Nc1ncnc2c1ncn2[C@@H]1O[C@H](CSc2nc3ccccc3[nH]2)[C@@H](O)[C@H]1O [compound 15] yielded a logD [1] of 0.3, an IC50 [2] greater than 100000 nM and an IC50 ([3]; read-out: IC50) of 590 ± 110 nM. For the same compound, the IC50 ([4]; read-out: IC50) was 860 ± 200 nM and the IC50 ([5]; read-out: IC50) was 480 ± 100 nM.
Nc1ncnc2c1ncn2[C@@H]1O[C@H](CSc2cccn3cncc23)[C@@H](O)[C@H]1O [compound 12] gave an IC50 [2] of 9300 nM, an IC50 ([3]; read-out: IC50) of 15000 ± 12000 nM and an IC50 ([4]; read-out: IC50) of 790 ± 60 nM. For the same compound, the IC50 ([5]; read-out: IC50) was 9500 ± 2300 nM and the logD [6] was 0.3.
In the case of Nc1ncnc2c1ncn2[C@@H]1O[C@H](COc2nc3ccccc3s2)[C@@H](O)[C@H]1O [compound 23], the IC50 [7] is reported as greater than 100000 nM, the IC50 ([3]; read-out: IC50) is reported as greater than 100000 nM and the logD [8] is reported as 0.5.
Work on Nc1ncnc2c1ncn2[C@@H]1O[C@H](CSc2nccs2)[C@@H](O)[C@H]1O [compound 11] yielded an IC50 [2] greater than 100000 nM, an IC50 ([3]; read-out: IC50) greater than 100000 nM and an IC50 ([4]; read-out: IC50) greater than 50000 nM. The IC50 ([5]; read-out: IC50) was greater than 50000 nM and the logD [6] was 0.3.
Nc1ncnc2c1ncn2[C@@H]1O[C@H](CSc2ccn3cncc3c2)[C@@H](O)[C@H]1O [compound 17] showed a logD [1] of 0.1, an IC50 [2] of 31100 nM and an IC50 ([3]; read-out: IC50) of 6900 ± 4600 nM. It also gave an IC50 ([4]; read-out: IC50) of 1100 ± 150 nM and an IC50 ([5]; read-out: IC50) of 6400 ± 1600 nM.
Compound CCNC(=O)NCCSC[C@H]1O[C@@H](n2cnc3c(N)ncnc32)[C@H](O)[C@@H]1O [compound 5] has an IC50 [2] greater than 100000 nM, an IC50 ([3]; read-out: IC50) of 1900 ± 300 nM and a half-life [9] greater than 30 min. The logD [6] was -0.2.
N#Cc1cn([C@@H]2O[C@H](CSc3nc4ccccc4s3)[C@@H](O)[C@H]2O)c2ncnc(N)c12 [compound 29] gave a logD [1] of 1.8, an IC50 [2] greater than 100000 nM and an IC50 [3] of 170 ± 20 nM. The IC50 [4] was 100 ± 7 nM, the half-life [9] was 12.1 min and the IC50 [5] was 73 ± 26 nM.
CNc1ncnc2c1ncn2[C@@H]1O[C@H](CSc2nc3ccccc3s2)[C@@H](O)[C@H]1O [compound 18] showed an IC50 ([3]; read-out: IC50) of 2100 ± 200 nM and a logD [8] of 1.3.
Cc1ccc2nc(SC[C@H]3O[C@@H](n4cnc5c(N)ncnc54)[C@H](O)[C@@H]3O)sc2c1 [compound 2] gave an IC50 [2] greater than 100000 nM, an IC50 [3] of 260 ± 70 nM and an IC50 [4] of 410 ± 80 nM. It also gave a half-life [9] greater than 30 min, an IC50 [5] of 110 ± 20 nM and a logD [6] of 1.6.
With Cc1ccc2sc(SC[C@H]3O[C@@H](n4cnc5c(N)ncnc54)[C@H](O)[C@@H]3O)nc2c1 [compound 3] the IC50 [2] was greater than 100000 nM, the IC50 [3] was 1200 ± 150 nM and the half-life [9] was 25.7 min. It also gave a logD [6] of 1.6.
OC1C(CSc2nc3ccccc3s2)OC(n2cnc3c(NC4CCCC4)ncnc32)C1O (stereo not drawn) [compound 20] showed an IC50 ([3]; SAM and RNA cap substrate at KM (SAM 1.0 µM), read-out: IC50) greater than 100000 nM and a logD [8] of 2.5.
In the case of CCCCCCSC[C@H]1O[C@@H](n2cnc3c(N)ncnc32)[C@H](O)[C@@H]1O [compound 4], the IC50 [2] is reported as greater than 100000 nM, the IC50 [3] is reported as 6100 ± 1100 nM and the IC50 [4] is reported as 9000 ± 1400 nM. For the same compound, the half-life [9] was 13.2 min, the IC50 [5] was 3300 ± 300 nM and the logD [6] was 2.
In the case of Nc1ncnc2c1ncn2[C@@H]1O[C@H](CSc2ccc3ccccc3n2)[C@@H](O)[C@H]1O [compound 7], the IC50 [2] is reported as greater than 100000 nM, the IC50 ([3]; read-out: IC50) is reported as 330 ± 90 nM and the IC50 ([4]; read-out: IC50) is reported as 550 ± 80 nM. The half-life [9] was greater than 30 min, the IC50 ([5]; read-out: IC50) was 240 ± 80 nM and the logD [6] was 1.3.
Compound Nc1ncnn2c([C@@H]3O[C@H](CCc4nc5ccccc5s4)[C@@H](O)[C@H]3O)ccc12 [compound 39] has a logD [1] of 1.3, an IC50 ([3]; read-out: IC50) of 500 ± 400 nM and an IC50 ([4]; read-out: IC50) of 2300 ± 50 nM. The IC50 ([5]; read-out: IC50) was 760 ± 300 nM.
C#Cc1cn([C@@H]2O[C@H](CSc3nc4ccccc4s3)[C@@H](O)[C@H]2O)c2ncnc(N)c12 [compound 30] showed a logD [1] of 2, an IC50 [2] greater than 100000 nM and an IC50 [3] of 54 ± 10 nM. For the same compound, the IC50 [4] was 33 ± 2 nM, the half-life [9] was 10.1 min and the IC50 [5] was 29 ± 9 nM.
